Results published in ChEMBL document CHEMBL1127225, “Gem-cycloalkyl substituted thiol inhibitors of neutral endopeptidase 24.11. Synthesis via nucleophilic opening of 2,2-spiro--lactones” (Bioorg Med Chem Lett, 1993).

Biological target: T1, Neprilysin (Rattus norvegicus, UniProt P07861)
T1 sequence (P07861 whole entry): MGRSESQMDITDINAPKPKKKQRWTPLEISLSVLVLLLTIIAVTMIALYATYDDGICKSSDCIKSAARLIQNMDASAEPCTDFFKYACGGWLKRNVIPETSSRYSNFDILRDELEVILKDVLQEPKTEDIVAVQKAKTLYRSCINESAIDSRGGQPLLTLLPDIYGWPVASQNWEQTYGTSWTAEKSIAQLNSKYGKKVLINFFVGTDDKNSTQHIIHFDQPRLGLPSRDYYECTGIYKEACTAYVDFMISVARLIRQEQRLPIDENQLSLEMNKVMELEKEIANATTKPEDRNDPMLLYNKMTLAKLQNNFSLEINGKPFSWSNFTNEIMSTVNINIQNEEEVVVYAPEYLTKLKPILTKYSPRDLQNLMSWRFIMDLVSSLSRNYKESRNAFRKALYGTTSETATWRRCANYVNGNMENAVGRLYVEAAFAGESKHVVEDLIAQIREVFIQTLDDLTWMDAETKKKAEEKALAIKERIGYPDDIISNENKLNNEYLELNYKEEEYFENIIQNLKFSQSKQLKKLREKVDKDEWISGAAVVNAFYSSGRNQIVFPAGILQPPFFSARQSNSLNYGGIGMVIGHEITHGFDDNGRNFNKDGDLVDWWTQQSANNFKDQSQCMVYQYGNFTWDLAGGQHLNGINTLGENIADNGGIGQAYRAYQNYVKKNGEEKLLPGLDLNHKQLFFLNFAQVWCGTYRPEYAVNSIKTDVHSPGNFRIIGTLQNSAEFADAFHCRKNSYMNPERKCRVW
Test: The compound was tested for its inhibitory activity against neutral endopeptidase ([…]) in rat kidney

Compound | IC50 [nM]
O=C(O)[C@H]1CCC[C@@H](NC(=O)C2(CS)CCCC2)C1 | 215
O=C(O)[C@H]1CCC[C@@H](NC(=O)C2(CS)CCCCC2)C1 | 310
O=C(O)[C@H](Cc1ccccc1)NC(=O)C1(CS)CCCC1 | 220

Now those with a lower IC50, led by results:

IC50 [nM] | Compound
180 | O=C(N[C@@H]1CCC[C@H](C(=O)O)C1)C(CS)Cc1ccccc1 (stereo not given in full)
38 | COCCOC[C@H](CC1(C(=O)N[C@H]2CC[C@@H](C(=O)O)CC2)CCCC1)C(=O)O [CANDOXATRILAT]
